Results as given in article PMC7083225 (Cell Chemical Biology, 2020).

What was measured:
human Nav1.7 = human Nav1.7 (Homo sapiens, UniProt Q15858); assay: Automated patch-clamp electrophysiology, CHO cells expressing Nav1.7; assay type: cell-based; conditions: SyncroPatch 768PE automated patch clamp; CHO stable cell line expressing human Nav1.7; holding -120 mV, 10 ms pulse to -10 mV every 2 s; 25 min compound; four-parameter Hill fit, each point n = 3-20; read-out: IC50 (nM), Nav1.7 inhibition
Sequence of human Nav1.7 (Q15858 1-1977 isoform Q15858-4): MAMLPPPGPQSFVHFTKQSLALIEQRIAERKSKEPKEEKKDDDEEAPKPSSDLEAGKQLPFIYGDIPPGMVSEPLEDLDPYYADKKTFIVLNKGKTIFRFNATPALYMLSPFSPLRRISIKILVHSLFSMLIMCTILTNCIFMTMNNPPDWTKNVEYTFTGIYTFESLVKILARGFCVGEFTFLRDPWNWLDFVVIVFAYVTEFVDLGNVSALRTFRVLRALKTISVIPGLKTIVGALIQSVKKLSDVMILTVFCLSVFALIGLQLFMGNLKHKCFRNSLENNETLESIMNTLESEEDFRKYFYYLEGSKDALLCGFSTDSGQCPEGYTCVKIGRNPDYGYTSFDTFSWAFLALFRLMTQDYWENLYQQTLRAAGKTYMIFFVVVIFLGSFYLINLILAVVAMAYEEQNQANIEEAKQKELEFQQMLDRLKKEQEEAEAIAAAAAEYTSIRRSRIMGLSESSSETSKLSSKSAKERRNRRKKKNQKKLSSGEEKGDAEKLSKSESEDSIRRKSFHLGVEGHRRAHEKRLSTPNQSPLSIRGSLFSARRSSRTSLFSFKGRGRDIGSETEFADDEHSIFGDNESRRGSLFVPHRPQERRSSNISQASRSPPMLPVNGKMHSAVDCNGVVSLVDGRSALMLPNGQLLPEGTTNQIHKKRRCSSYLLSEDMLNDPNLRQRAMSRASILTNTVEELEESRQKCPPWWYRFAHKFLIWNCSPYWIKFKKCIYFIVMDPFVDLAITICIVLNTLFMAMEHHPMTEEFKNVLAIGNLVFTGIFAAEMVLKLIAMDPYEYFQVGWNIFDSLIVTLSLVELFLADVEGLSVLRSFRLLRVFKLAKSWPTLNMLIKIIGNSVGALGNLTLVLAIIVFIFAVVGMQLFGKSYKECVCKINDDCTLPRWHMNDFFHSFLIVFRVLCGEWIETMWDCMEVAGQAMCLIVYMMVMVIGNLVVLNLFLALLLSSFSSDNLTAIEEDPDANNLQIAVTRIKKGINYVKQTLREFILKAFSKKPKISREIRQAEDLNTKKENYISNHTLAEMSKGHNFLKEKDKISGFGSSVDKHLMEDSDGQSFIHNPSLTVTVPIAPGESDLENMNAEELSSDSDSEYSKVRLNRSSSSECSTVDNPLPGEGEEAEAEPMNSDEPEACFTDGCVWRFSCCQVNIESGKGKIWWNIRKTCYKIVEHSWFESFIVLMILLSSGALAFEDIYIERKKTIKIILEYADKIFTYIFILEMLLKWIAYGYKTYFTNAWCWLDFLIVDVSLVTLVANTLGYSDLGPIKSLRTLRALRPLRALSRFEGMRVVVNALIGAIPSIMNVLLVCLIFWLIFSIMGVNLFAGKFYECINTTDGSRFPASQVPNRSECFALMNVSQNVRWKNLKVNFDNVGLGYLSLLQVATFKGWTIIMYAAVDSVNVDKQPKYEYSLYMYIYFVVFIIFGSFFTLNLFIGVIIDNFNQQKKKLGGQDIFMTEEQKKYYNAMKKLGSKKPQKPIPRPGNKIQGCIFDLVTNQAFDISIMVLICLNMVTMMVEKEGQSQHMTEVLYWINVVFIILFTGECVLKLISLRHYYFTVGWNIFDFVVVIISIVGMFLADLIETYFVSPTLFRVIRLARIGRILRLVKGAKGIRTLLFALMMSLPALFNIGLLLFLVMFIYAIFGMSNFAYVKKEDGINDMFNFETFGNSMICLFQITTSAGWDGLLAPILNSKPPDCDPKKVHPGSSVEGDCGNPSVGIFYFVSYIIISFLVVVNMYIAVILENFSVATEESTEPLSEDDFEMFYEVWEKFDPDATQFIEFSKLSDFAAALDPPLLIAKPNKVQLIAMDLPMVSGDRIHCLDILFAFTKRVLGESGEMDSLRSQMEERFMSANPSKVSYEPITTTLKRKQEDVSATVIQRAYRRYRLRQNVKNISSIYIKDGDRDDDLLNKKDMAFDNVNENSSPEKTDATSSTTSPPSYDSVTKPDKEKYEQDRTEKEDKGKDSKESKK
Procedure: The obtained photoprobes were evaluated in a patch-clamp assay using CHO cells expressing Nav1.7 (Figure 1D).
For electrophysiological recordings, the human Nav1.7 (XM_011511618) expressing CHO stable cell line (Anaxon, Switzerland) was cultured in Ham’s F12 medium supplemented with 10% FBS, 2 mM L-Glutamine and required selection antibiotic in 5% CO2 at 37°C.
For all Nav channel recordings, the intracellular solution contained (in mM): 50 CsCl, 60 CsF, 10 NaCl, 20 EGTA and 10 HEPES (pH 7.2, osmolarity 285 mOsm), and extracellular solution contained (in mM): 80 NaCl, 60 NMDG, 4 KCl, 2 CaCl2, 1 MgCl2, 5 glucose and 10 HEPES (pH 7.4, osmolarity 300 mOsm). Automated patch clamp (APC) recordings were performed by using SyncroPatch 768PE (Nanion Technologies, Germany), with PatchController384 V1.5.2 and DataController384 V1.5.0 software for pulse generation and data collection. Currents were sampled at 10 kHz and filtered with Bessel filter. Series resistance was compensated 80% with leak subtraction. Seal resistance (Rseal) was calculated using built-in protocols, and high-quality recoding data was obtained by auto filtering 3 quality control criteria: cell catching (>10 MΩ), seal resistance (>500 MΩ) and baseline current amplitude (>500 pA), and follow with manual inspection. The voltage protocol for all toxin pharmacological tests was set with holding membrane potential (Vm) at -120 mV, eliciting a 10 ms pulse to -10 mV every 2 s, recording 5 min for baseline and followed with examining compound effect for 25 min. Nav channel inhibition was calculated as the percentage of peak current (I) decrease from before compound application (I_Baseline) to the end of 25 minutes compound application (I_End) and both being normalized to the end of experiment full block current (I_Fullblock) using this following equation: Block%=[1−(Iend−Ifullblock/Ibaseline−Ifullblock)]×100%
All Nav channel inhibitions were presented as mean ± standard error of the mean from at least three independent trials.

[1] = target: the molecule itself; assay: SEC; size-exclusion chromatography after anti-FLAG affinity purification, in GDN detergent

Molecule | IC50 (human Nav1.7) [nM] | binding result [1]
CC[C@H](C)[C@H](NC(=O)[C@H](CCC(N)=O)NC(=O)[C@H](Cc1ccc(O)cc1)NC(=O)[C@H](CCCCN)NC(=O)[C@@H]1CSSC[C@@H]2NC(=O)[C@H](CCC(N)=O)NC(=O)[C@H](CC(=O)O)NC(=O)[C@H](CC(N)=O)NC(=O)[C@H](CO)NC(=O)[C@@H]3CCCN3C(=O)[C@H](CC(N)=O)NC(=O)[C@@H]3CSSC[C@H](NC(=O)[C@H](C(C)C)NC(=O)[C@H](CC(C)C)NC(=O)[C@H](CCCCN)NC(=O)[C@H](CO)NC(=O)[C@H](CO)NC(=O)[C@H](CCCCN)NC(=O)[C@H](CSSC[C@H](NC(=O)[C@@H](N)CCC(=O)O)C(=O)N[C@@H](CC(C)C)C(=O)N[C@@H](CCC(=O)O)C(=O)N[C@@H]([C@@H](C)CC)C(=O)N[C@@H](Cc4ccccc4)C(=O)N[C@@H](CCCCN)C(=O)N[C@@H](C)C(=O)N3)NC2=O)C(=O)N[C@@H](CO)C(=O)N[C@@H](CCCNC(=N)N)C(=O)N[C@@H](CCCCN)C(=O)N[C@@H]([C@@H](C)O)C(=O)N[C@@H](CCC2(C)N=N2)C(=O)N[C@@H](Cc2c[nH]c3ccccc23)C(=O)N1)C(N)=O [HTMp29] | 68 | 
CC[C@H](C)[C@H](NC(=O)[C@H](CCC(N)=O)NC(=O)[C@H](Cc1ccc(O)cc1)NC(=O)[C@H](CCCCN)NC(=O)[C@@H]1CSSC[C@@H]2NC(=O)[C@H](CCC(N)=O)NC(=O)[C@H](CC(=O)O)NC(=O)[C@H](CC(N)=O)NC(=O)[C@H](CO)NC(=O)[C@@H]3CCCN3C(=O)[C@H](CC(N)=O)NC(=O)[C@@H]3CSSC[C@H](NC(=O)[C@H](C(C)C)NC(=O)[C@H](CC(C)C)NC(=O)[C@H](CCCCN)NC(=O)[C@H](CO)NC(=O)[C@H](CO)NC(=O)[C@H](CCCCN)NC(=O)[C@H](CSSC[C@H](NC(=O)[C@@H](N)CCC(=O)O)C(=O)N[C@@H](CC(C)C)C(=O)N[C@@H](CCC(=O)O)C(=O)N[C@@H]([C@@H](C)CC)C(=O)N[C@@H](Cc4ccccc4)C(=O)N[C@@H](CCCCN)C(=O)N[C@@H](C)C(=O)N3)NC2=O)C(=O)N[C@@H](CO)C(=O)N[C@@H](CCCNC(=N)N)C(=O)N[C@@H](CCC2(C)N=N2)C(=O)N[C@@H]([C@@H](C)O)C(=O)N[C@@H](CCCNC(=N)N)C(=O)N[C@@H](Cc2c[nH]c3ccccc23)C(=O)N1)C(N)=O [HTMp27] | 80 | 
CC[C@H](C)[C@@H]1NC(=O)[C@H](CCC(=O)O)NC(=O)[C@H](CC(C)C)NC(=O)[C@@H](NC(=O)[C@@H](N)CCC(=O)O)CSSC[C@@H]2NC(=O)[C@@H]3CSSC[C@@H](C(=O)N[C@@H](CCCCN)C(=O)N[C@@H](Cc4ccc(O)cc4)C(=O)N[C@@H](CCC(N)=O)C(=O)N[C@@H](CCC4(C)N=N4)C(N)=O)NC(=O)[C@H](Cc4c[nH]c5ccccc45)NC(=O)[C@H](CCCNC(=N)N)NC(=O)[C@H]([C@@H](C)O)NC(=O)[C@H](CCCCN)NC(=O)[C@H](CCCNC(=N)N)NC(=O)[C@H](CO)NC(=O)[C@H](CSSC[C@H](NC(=O)[C@H](C)NC(=O)[C@H](CCCCN)NC(=O)[C@H](Cc4ccccc4)NC1=O)C(=O)N[C@@H](CC(N)=O)C(=O)N1CCC[C@H]1C(=O)N[C@@H](CO)C(=O)N[C@@H](CC(N)=O)C(=O)N[C@@H](CC(=O)O)C(=O)N[C@@H](CCC(N)=O)C(=O)N3)NC(=O)[C@H](C(C)C)NC(=O)[C@H](CC(C)C)NC(=O)[C@H](CCCCN)NC(=O)[C@H](CO)NC(=O)[C@H](CO)NC(=O)[C@H](CCCCN)NC2=O [HTMp35] | 13 | 
CC[C@H](C)[C@H](NC(=O)[C@H](CCC(N)=O)NC(=O)[C@H](Cc1ccc(O)cc1)NC(=O)[C@H](CCCCN)NC(=O)[C@@H]1CSSC[C@@H]2NC(=O)[C@H](CCC(N)=O)NC(=O)[C@H](CC(=O)O)NC(=O)[C@H](CC(N)=O)NC(=O)[C@H](CO)NC(=O)[C@@H]3CCCN3C(=O)[C@H](CC(N)=O)NC(=O)[C@@H]3CSSC[C@H](NC(=O)[C@H](C(C)C)NC(=O)[C@H](CC(C)C)NC(=O)[C@H](CCC4(C)N=N4)NC(=O)[C@H](CO)NC(=O)[C@H](CO)NC(=O)[C@H](CCCCN)NC(=O)[C@H](CSSC[C@H](NC(=O)[C@@H](N)CCC(=O)O)C(=O)N[C@@H](CC(C)C)C(=O)N[C@@H](CCC(=O)O)C(=O)N[C@@H]([C@@H](C)CC)C(=O)N[C@@H](Cc4ccccc4)C(=O)N[C@@H](CCCCN)C(=O)N[C@@H](C)C(=O)N3)NC2=O)C(=O)N[C@@H](CO)C(=O)N[C@@H](CCCNC(=N)N)C(=O)N[C@@H](CCCCN)C(=O)N[C@@H]([C@@H](C)O)C(=O)N[C@@H](CCCNC(=N)N)C(=O)N[C@@H](Cc2c[nH]c3ccccc23)C(=O)N1)C(N)=O [HTMp21] | 35 | 
CC[C@H](C)[C@H](NC(=O)[C@H](CCC(N)=O)NC(=O)[C@H](Cc1ccc(O)cc1)NC(=O)[C@H](CCCCN)NC(=O)[C@@H]1CSSC[C@@H]2NC(=O)[C@H](CCC(N)=O)NC(=O)[C@H](CC(=O)O)NC(=O)[C@H](CC(N)=O)NC(=O)[C@H](CO)NC(=O)[C@@H]3CCCN3C(=O)[C@H](CC(N)=O)NC(=O)[C@@H]3CSSC[C@H](NC(=O)[C@H](C(C)C)NC(=O)[C@H](CC(C)C)NC(=O)[C@H](CCCCN)NC(=O)[C@H](CO)NC(=O)[C@H](CO)NC(=O)[C@H](CCCCN)NC(=O)[C@H](CSSC[C@H](NC(=O)[C@@H](N)CCC(=O)O)C(=O)N[C@@H](CC(C)C)C(=O)N[C@@H](CCC(=O)O)C(=O)N[C@@H]([C@@H](C)CC)C(=O)N[C@@H](Cc4ccccc4)C(=O)N[C@@H](CCC4(C)N=N4)C(=O)N[C@@H](C)C(=O)N3)NC2=O)C(=O)N[C@@H](CO)C(=O)N[C@@H](CCCNC(=N)N)C(=O)N[C@@H](CCCCN)C(=O)N[C@@H]([C@@H](C)O)C(=O)N[C@@H](CCCNC(=N)N)C(=O)N[C@@H](Cc2c[nH]c3ccccc23)C(=O)N1)C(N)=O [HTMp7] | 40 | 
CC[C@H](C)[C@H](NC(=O)[C@H](CCC(N)=O)NC(=O)[C@H](Cc1ccc(O)cc1)NC(=O)[C@H](CCCCN)NC(=O)[C@@H]1CSSC[C@@H]2NC(=O)[C@H](CCC(N)=O)NC(=O)[C@H](CC(=O)O)NC(=O)[C@H](CC(N)=O)NC(=O)[C@H](CO)NC(=O)[C@@H]3CCCN3C(=O)[C@H](CC(N)=O)NC(=O)[C@@H]3CSSC[C@H](NC(=O)[C@H](C(C)C)NC(=O)[C@H](CC(C)C)NC(=O)[C@H](CCCCN)NC(=O)[C@H](CO)NC(=O)[C@H](CO)NC(=O)[C@H](CCCCN)NC(=O)[C@H](CSSC[C@H](NC(=O)[C@@H](N)CCC(=O)O)C(=O)N[C@@H](CC(C)C)C(=O)N[C@@H](CCC(=O)O)C(=O)N[C@@H](CCC4(C)N=N4)C(=O)N[C@@H](Cc4ccccc4)C(=O)N[C@@H](CCCCN)C(=O)N[C@@H](C)C(=O)N3)NC2=O)C(=O)N[C@@H](CO)C(=O)N[C@@H](CCCNC(=N)N)C(=O)N[C@@H](CCCCN)C(=O)N[C@@H]([C@@H](C)O)C(=O)N[C@@H](CCCNC(=N)N)C(=O)N[C@@H](Cc2c[nH]c3ccccc23)C(=O)N1)C(N)=O [HTMp5] | 41 | 
VSD2-NavAb chimeric channel (hNav1.7 VSD2 sequences fused to a NavAb scaffold) (other, not shown: FLAG, N-terminal, kept) MYLRITNIVESSFFTKFIIYLIVLNTLFMAMEHHPMTEEFKNVLAIGNLVFTGIFAIEIILRIYVHRISFFKDPWSLFDSLIVTLSLVELFLADVEGLSVLRSFRLLRVFRLVTAVPQMRKIVSALISVIPGMLSVIALMTLFFYIFAIMATQLFGERFPEWFGTLGESFYTLFQVMTLESWSMGIVRPLMEVYPYAWVFFIPFIFVVTFVMINLVVAICVDAMAILNQKEEQHIIDEVQSHEDNINNEIIKLREEIVELKELIKTSLKN |  | binds
